Patent US10314777B2, “Delivery of hydrophobic bioactive agents” (priority 2010, dated 2019)

Experiment: Solubility of the retinoate in the carrier GRANSIL GTS
Assay type: physicochemical
From the text: In some embodiments, a bioactive agent is a vitamin A derivative such as a retinoid. As an example, some embodiments include hydroxyanasatil retinoate, a form of all-trans retinoate sold by Concert, LLC, Memphis, Tenn., optionally in an amount of 0.1 percent by weight. This material is insoluble at this concentration in the carrier sold under the tradename GRANSIL GTS, which is a mixture of ethyl trisiloxane and polysilicone-11. […] Upon exposure to the environment for application to the skin, the carrier volatilizes allowing the crystalline retinoate to resolubilize in the solvent for increased penetration of the skin.

COc1ccc(C(=O)COC(=O)\C=C(C)/C=C/C=C(C)/C=C/C2=C(C)CCCC2(C)C)cc1 [hydroxyanasatil retinoate]
solubility in carrier GRANSIL GTS (0.1 percent by weight in ethyl trisiloxane and polysilicone-11): insoluble
state in carrier GRANSIL GTS with non-volatile solvent (0.1 percent by weight, dimethyl isosorbide added at 0.8%): mixed state of solubilized material and crystalline material
